# Patent publication US5830996A, “Cyclic peptide antitumor agent from an ascidian” (University of Utah Research Foundation, priority 1996, dated 1998)
# What was measured:
# A498 cells = details: MTT assay
# Procedure: (§1) Vitilevuamide prepared according to the procedure of Example 1 or Example 2 was tested against a panel of human tumor cell lines: (a) a colon cancer cell line, HCT 116 (obtained from ATCC), M. Brattain, 41 Cancer Res. 1751 (1986); (b) an adenocarcinoma cell line, A549, D. J. Giard, 51 J. Nat'l Cancer Inst. 1417 (1973); (c) a malignant melanoma cell line, SK-MEL-5, H. F Oteggen, 41 J. Nat'l Cancer Inst. 827 (1968); and (d) a kidney carcinoma cell line, A498, S. Aaronson, 51 J. Nat'l Cancer Inst. 1417 (1973). Cells were cultured according to the procedure of M. C. Alley et al., 48 Cancer Res. 589 (1988), hereby incorporated by reference.
# (§2) Screening was performed in a 96-well microtiter plate by the standard 3-[4,5-dimethylthiazol-2-yl]-[…] bromide; thiazolyl blue (MTT) cell inhibition assay adopted for anticancer drug screening at NIH. J. Carmichael et al., 47 Cancer Res. 936 (1987), hereby incorporated by reference. Positive controls were run simultaneously.
# A549 cells = details: MTT assay
# Procedure: as §1, §2
# HCT 116 cells = details: MTT assay
# Procedure: as §1, §2
# SK-MEL-5 cells = details: MTT assay
# Procedure: as §1, §2
# C6 rat glioma cells = experiment: Tubulin inhibition assay (db-cAMP rounding, MTT readout); format: cell-based; details: 4 h treatment then 1 mM db-cAMP, colchicine 25 μg/mL positive control
# Procedure: C6 rat glioma cells (ATCC CCL107) were seeded into the wells of a microtiter plate and then incubated for 1 day. The cells were then treated with a range of vitilevuamide concentrations, normally 5 orders of magnitude, and incubated for 4 additional hours. The cells were then treated for 1 hour with 1 mM dibuteryl-cAMP (db-cAMP), which causes the C6 cells to assume a spherical morphology ("rounding") within 60 minutes due to polymerization of tubulin. Cells that are exposed to tubulin-active compounds, on the other hand, display a different morphological change--flattening and adherence to the substrate. All of the wells were then jet aspirated, and the wells were resupplied with fresh medium containing MTT. The glioma cells metabolize MTT to a dark formazan dye. P. R. Twentyman & M. Luscombe, 56 Br. J. Cancer 279 (1987); F. Denizot & R. Lang, 89 J. Immunol. Methods 271 (1986). Following 4 hours of incubation, absorbance was measured at 450 nm. Colchicine (25 μg/mL) was used as the positive control.
# P388 tumor cells = experiment: In vivo P388 tumor life span test in CDF1 mice; details: days 1, 5, 9, CDF1 mice with P388
# Procedure: Vitilevuamide was also screened for in vivo activity by injecting CDF1 mice intraperitoneally on day 0 with 1×10^6 P388 tumor cells. Five animals were randomly assigned to a group. On days 1, 5, and 9 after tumor implantation, these mice were treated intraperitoneally with either a placebo or the drug. Animals were checked twice daily, and the day of death of each mouse was recorded. A positive drug response is defined as a greater than 25% increase in the mean life span (% ILS) relative to the placebo control.
compound,measurement,setting,value
C=C1NC(=O)[C@H]([C@@H](C)CC)NC(=O)C2CSCC(NC(=O)CCC(=O)O)C(=O)N[C@H](Cc3ccccc3)C(=O)N[C@H](C)C(=O)NC(CC(C)CC)C(=O)N[C@@H](C(=O)N[C@H](Cc3ccccc3)C(=O)N3CCC[C@H]3C(=O)N2)[C@@H](C)OC(=O)[C@H](CO)NC(=O)C(C(O)COC)N(C)C(=O)[C@@H](C(C)C)NC(=O)C(CC(C)CC)NC1=O (stereo partly drawn) [vitilevuamide],50% inhibitory concentration (IC50),A498 cells,5 µg/mL
same,50% inhibitory concentration (IC50),A549 cells,0.2 µg/mL
same,50% inhibitory concentration (IC50),HCT 116 cells,0.01 µg/mL
same,50% inhibitory concentration (IC50),SK-MEL-5 cells,0.5 µg/mL
same,concentration showing the same effect as colchicine,C6 rat glioma cells,4 µg/mL
same,% ILS (increase in mean life span relative to placebo),P388 tumor cells; 0.006 mg/kg/dose i.p.,8%
same,% ILS (increase in mean life span relative to placebo),P388 tumor cells; 0.012 mg/kg/dose i.p.,20%
same,% ILS (increase in mean life span relative to placebo),P388 tumor cells; 0.03 mg/kg/dose i.p.,70%
same,% ILS (increase in mean life span relative to placebo),P388 tumor cells; 0.06 mg/kg/dose i.p.,-13%
same,toxicity remark at dose,P388 tumor cells; 0.06 mg/kg/dose i.p.,toxic
same,% ILS (increase in mean life span relative to placebo),P388 tumor cells; 0.13 mg/kg/dose i.p.,-45%
same,toxicity remark at dose,P388 tumor cells; 0.13 mg/kg/dose i.p.,toxic
